Test results from PubChem BioAssay (NCI).
Several values for one entry are separate records, joined by “and”; a condition that tells them apart may be missing. Equal entries are not always repeated.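 Tested at 5 concentrations; 48 h exposure; 96-well plates; endpoints linearly interpolated, else capped at highest concentration. GI50 marks 50% less growth. Definition used: TGI = concentration required for complete inhibition of growth.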 Where a SMILES comes first, the peptide text is derived from it. [ ]: non-standard residue; d: D form. The star is where a group is joined. ξ: configuration not given here. X3 = COc1ccc(C(N*)c2ccc(OC)cc2)cc1; NMeF = CN[C@@H](Cc1ccccc1)C(=O)O; NMeD = CN[C@@H](CC(=O)O)C(=O)O; NMeV = CN[C@H](C(=O)O)C(C)C; ξNMeV = CNC(C(=O)O)C(C)C; Boc = CC(C)(C)OC(=O)*; ξNMeA = CNC(C)C(=O)O; ξV = CC(C)C(N)C(=O)O

What was measured:
Assay in all cases: NCI-60 cell line screen, 48 h
NCI-H23 lung = tested on: NCI-H23 lung
KM20L2 colon = tested on: KM20L2 colon
HOP-62 NSCLC = tested on: HOP-62 NSCLC
786-0 renal = tested on: 786-0 renal
HL-60(TB) leukemia = tested on: HL-60(TB) leukemia
XF 498 CNS = tested on: XF 498 CNS
TK-10 renal = tested on: TK-10 renal
DLD-1 colon = tested on: DLD-1 colon
A549 NSCLC = tested on: A549 NSCLC
SNB-75 CNS = tested on: SNB-75 CNS

Compound | TGI (NCI-H23 lung) | TGI (KM20L2 colon) | TGI (HOP-62 NSCLC) | TGI (786-0 renal) | TGI (HL-60(TB) leukemia) | TGI (XF 498 CNS) | TGI (TK-10 renal) | TGI (DLD-1 colon) | TGI (A549 NSCLC) | TGI (SNB-75 CNS) | GI50 (NCI-H23 lung) | GI50 (HOP-62 NSCLC) | GI50 (786-0 renal) | GI50 (HL-60(TB) leukemia) | GI50 (SNB-75 CNS) | GI50 (TK-10 renal) | GI50 (A549 NSCLC) | GI50 (KM20L2 colon)
COC(=O)CC(c1ccccc1)C1(c2ccccc2)SCCS1 (stereo not given) | > 290 µM | > 290 µM | > 290 µM | > 290 µM | > 290 µM | > 290 µM | > 290 µM | > 290 µM | > 290 µM | – | – | – | – | – | – | – | – | –
CCOC(=O)C1=C(C(=O)OCC)C2c3ccccc3C=CN2C(C(=O)OCC)=C(SC)S1 (stereo not given) | > 100 µM | > 100 µM | > 100 µM | > 100 µM | > 100 µM | – | > 100 µM | > 100 µM | > 100 µM | > 100 µM | – | – | – | – | – | – | – | –
CC(=O)NNc1nc(C)c(C(=O)/C=C/c2ccc(NC(C)=O)cc2)s1 | > 100 µM | > 100 µM | > 100 µM | > 100 µM | > 100 µM | – | > 100 µM | > 100 µM | > 100 µM | > 100 µM | – | – | – | – | – | – | – | –
CCCCCC[C@@H]1CCC2C(CO)[C@@H](O)CC[C@@H]2C1 (stereo not given in full) | 30.8 µM | 33.7 µM | 33 µM | 33.5 µM | – | 39.8 µM | – | 34.6 µM | 32.1 µM | 37.6 µM | – | – | – | – | – | – | – | –
COc1ccc(C(NC(=O)C[C@@H](C(=O)N(C)C(C)C(=O)O)N(C)C(=O)[C@@H]2CCCN2C(=O)[C@H](C(C)C)N(C)C(=O)C(C(C)C)N(C)C(=O)[C@H](Cc2ccccc2)N(C)C(=O)C(NC(=O)OC(C)(C)C)C(C)C)c2ccc(OC)cc2)cc1 (stereo not given in full) (Boc-[ξV][NMeF][ξNMeV][NMeV]P[NMeD](X3)[ξNMeA]-OH) | 37.5 µM and 53.4 µM | 37.6 µM | 31.8 µM and 35.5 µM | 33.4 µM and 31.7 µM | 18.7 µM and 45.2 µM | 29.5 µM | 37.5 µM and 35.1 µM | 32.1 µM | > 37.5 µM and 31.7 µM | 17.6 µM and 30.7 µM | 23.1 µM | 18.5 µM | 17.9 µM | 24 µM | 15.8 µM | 20.6 µM | 17.1 µM | –
NC(=O)c1ccccc1NC(=O)C(=O)C(C(=O)c1ccc(Cl)c(Cl)c1)C1OC(=O)c2ccccc21 (stereo not given) | > 100 µM | > 100 µM | > 100 µM | > 100 µM | > 100 µM | > 100 µM | – | > 100 µM | > 100 µM | 83.2 µM | – | – | – | – | – | – | – | –
O=C(/C=C/c1ccc(O)cc1)c1ccc(O)cc1 | 62.6 µM | 47 µM | 49.1 µM | > 100 µM | > 75.1 µM | 34.1 µM | > 100 µM | 36.9 µM | > 100 µM | 51.7 µM | – | – | – | – | – | – | – | –
Cc1ccc(Oc2ccc(C)cc2N)cc1 | > 100 µM | > 100 µM | > 100 µM | > 100 µM | > 100 µM | – | > 100 µM | > 100 µM | > 100 µM | 73.3 µM | – | – | – | – | – | – | – | –
c1ccc(NCn2cnc3ccccc32)cc1 | > 100 µM | > 100 µM | – | > 100 µM | – | > 100 µM | > 100 µM | > 100 µM | > 100 µM | > 100 µM | – | – | – | – | – | – | – | –
Cc1cc2c(C)[nH]nc2c(C(=O)O)c1C | > 100 µM | > 100 µM | > 100 µM | > 100 µM | > 100 µM | > 100 µM | – | > 100 µM | > 100 µM | > 100 µM | – | – | – | – | – | – | – | –
C/C(=N/Nc1ccc([N+](=O)[O-])cc1[N+](=O)[O-])C(CC(C(=O)NCc1ccccc1)/C(C)=N\Nc1ccc([N+](=O)[O-])cc1[N+](=O)[O-])C(=O)NCc1ccccc1 (stereo not given) | 28.7 µM | 37.5 µM | 13.9 µM | 13.1 µM | – | – | – | 29.4 µM | 14.6 µM | 12.4 µM | – | – | – | – | – | – | – | –
N[C@@H]1CCCC[C@@H]1N.O=P([O-])([O-])CN(CCN(CP(=O)([O-])[O-])CP(=O)([O-])[O-])CP(=O)([O-])[O-].[Pt+2] | > 25 µM | > 25 µM | > 25 µM | > 25 µM | > 25 µM | – | > 25 µM | – | > 25 µM | > 25 µM | > 25 µM | > 25 µM | > 25 µM | > 25 µM | > 25 µM | > 25 µM | > 25 µM | > 25 µM
COc1ccc(OC)c(N2CC(N)C2=O)c1 (stereo not given) | > 100 µM | > 100 µM | > 100 µM | > 100 µM | > 100 µM | > 100 µM | > 100 µM | – | > 100 µM | > 100 µM | – | – | – | – | – | – | – | –
O=C(/C=C/c1ccc([N+](=O)[O-])cc1)c1ccc(NCc2nc3ccccc3[nH]2)cc1 | 15.3 µM | 15.3 µM | 26.7 µM | 10.8 µM | 4.25 µM | 20.2 µM | 19.9 µM | 15.7 µM | – | 31.5 µM | – | – | – | – | – | – | – | –
CC1=C2C(=C[C@@](C)(CO)[C@@H]2O)C(=O)[C@](C)(O)C12CC2 | – | – | 0.0263 µM and 0.0432 µM | 0.0143 µM and 0.0638 µM | 0.0327 µM | – | 0.106 µM | – | 0.0885 µM and 0.2 µM | 0.0296 µM and 0.0123 µM | 0.3 µM | – | – | – | – | – | – | –
